According to patent US20090048233A1, “Enhancing the Tolerability of a Seratonin Antagonist and a NSRI, a SNRI or a RIMA by Using Them in Combination” (CYPRESS BIOSCIENCES, INC., priority 2007, published 2009):

Assays:
normal, health subjects [1] = experiment: Example 1 tolerability study, mirtazapine and milnacipran or duloxetine; conditions: 6 weeks, 15 mg mirtazapine or 100 mg milnacipran or duloxetine
Method: (§1) The subjects receive 2 capsules per day, one in the morning and one at bedtime. […] All medications are administered in an over-encapsulated format that ensures blinding of study participants, staff and investigators. All subjects are scheduled to receive a total of 6 weeks of therapy, and are required to return to the clinics after 1, 2, 4 and 6 weeks of therapy. Patients are required to complete paper self-assessments, electronic diary assessments, computer based cognitive testing, as well as vital signs and weight assessments at the clinic visits.

[2] = test system: chronic tension type headache; conditions: controlled trial; cited from earlier work
[3] = test system: cancer patients with pain; conditions: open trial in cancer pain, 15 and 30 mg; cited from earlier work
normal, health subjects [4] = experiment: Example 4 tolerability study, mirtazapine and milnacipran; conditions: 6 weeks, 15 mg mirtazapine or 50 mg milnacipran
Method: as §1

normal, health subjects [5] = experiment: Example 1A tolerability study, mirtazapine and 1S,2R-enriched milnacipran; conditions: 6 weeks, milnacipran with 1S,2R:1R,2S ratio about 55:45 to 90:10
Method: as §1

[6] = test system: patients with fibromyalgia; conditions: open study; cited from earlier work
normal, health subjects [7] = experiment: Example 5 tolerability study, mirtazapine and duloxetine; format: in vivo, human; conditions: 6 weeks, 15 mg mirtazapine or 30 mg duloxetine
[8] = test system: reuptake of noradrenaline and serotonin; conditions: in vivo; cited from earlier work
[9] = controlled studies; cited from earlier work

| SMILES | side effects of the drug alone (normal, health subjects [1]) | efficacy in chronic tension type headache [2] | depression levels [3] | pain intensity [3] | side effects of the drug alone (normal, health subjects [4]) | side effects of the drug alone (normal, health subjects [5]) | activity in fibromyalgia pain [6] | side effects of the drug alone (normal, health subjects [7]) | potency for inhibiting the reuptake of both noradrenaline and serotonin [8] | appetite increase reported, share of patients [9] [%] | weight gain of greater than or equal to 7% of body weight reported, share of patients [9] [%] |
| --- | --- | --- | --- | --- | --- | --- | --- | --- | --- | --- | --- |
| CN1CCN2c3ncccc3Cc3ccccc3C2C1 (stereo not drawn) [mirtazapine, 1,2,3,4,10,14b-hexahydro-2-methylpyrazino [2,1-a]pyrido[2,3-c]benzazepine] | does cause weight gain, sedation, and cognitive deficits | suggested efficacy in chronic tension type headache | significant improvements were obtained in depression levels | pain intensity was not statistically improved | does cause weight gain, sedation, and cognitive deficits | does cause weight gain, sedation, and cognitive deficits | has some activity in fibromyalgia pain | does cause weight gain, sedation, and cognitive deficits | – | – | – |
| CNCC[C@H](Oc1cccc2ccccc12)c1cccs1 [duloxetine, (+)-(S)—N-methyl-3-(1-naphthyloxy)-3-(thiophen-2-yl)-propan-1-amine] | causes insomnia, nausea/vomiting, and weight loss | – | – | – | causes insomnia, nausea/vomiting, and weight loss | causes insomnia, nausea/vomiting, and weight loss | – | causes insomnia, nausea/vomiting, and weight loss | – | – | – |
| CCN(CC)C(=O)[C@@]1(c2ccccc2)C[C@H]1CN (racemic) [milnacipran, cis-(±)-2-(aminomethyl)-N,N-diethyl-1-phenylcyclopropanecarboxamide] | causes insomnia, nausea/vomiting, and weight loss | – | – | – | causes insomnia, nausea/vomiting, and weight loss | causes insomnia, nausea/vomiting, and weight loss | – | – | nearly equal potency | – | – |
| CN(C)CCC=C1c2ccccc2CCc2ccccc21 [amitriptyline] | – | – | – | – | – | – | – | – | – | 6 | 5.9 |
